Measurements published in PubChem BioAssay AID1963839 (Molecular Pharmacology Branch, DTP, NCI, 2024).

Tested on: 817829-284-R-J1-PDC complex spheroid viability
Test: Anticancer human tumor 817829-284-R-J1-PDC patient-derived colon adenocarcinoma cell line growth inhibition [POLQ]
Conditions: for IC50: curve of first compound; for viability, T/C: stronger effect = lower value
Procedure, shortened: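 PDC + HUVEC + MSC complex spheroids; POLQ inhibitors ± partner drugs; top conc. at/near clinical Cmax, else 10 microM (SN-38 1 microM), half-log dilutions; 37 degrees C, 5% CO2.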

[1] = second compound 0.0316 µM, first compound 0.0316 µM
[2] = second compound 0.0316 µM, first compound 0.1 µM
[3] = second compound 0.0316 µM, first compound 0.316 µM
[4] = second compound 0.0316 µM, first compound 1 µM
[5] = second compound 0.0316 µM, first compound 3.16 µM
[6] = second compound 0.0316 µM, first compound 10 µM
[7] = second compound 0.1 µM, first compound 0.0316 µM
[8] = second compound 0.1 µM, first compound 0.1 µM
[9] = second compound 0.1 µM, first compound 0.316 µM
[10] = second compound 0.1 µM, first compound 1 µM
[11] = second compound 0.1 µM, first compound 3.16 µM
[12] = second compound 0.1 µM, first compound 10 µM
[13] = second compound 0.316 µM, first compound 0.0316 µM
[14] = second compound 0.316 µM, first compound 0.1 µM
[15] = second compound 0.316 µM, first compound 0.316 µM
[16] = second compound 0.316 µM, first compound 1 µM
[17] = second compound 0.316 µM, first compound 3.16 µM
[18] = second compound 0.316 µM, first compound 10 µM
[19] = second compound 1 µM, first compound 0.0316 µM
[20] = second compound 1 µM, first compound 0.1 µM
[21] = second compound 1 µM, first compound 0.316 µM
[22] = second compound 1 µM, first compound 1 µM
[23] = second compound 1 µM, first compound 3.16 µM
[24] = second compound 1 µM, first compound 10 µM
[25] = second compound 3.16 µM, first compound 0.0316 µM
[26] = second compound 3.16 µM, first compound 0.1 µM
[27] = second compound 3.16 µM, first compound 0.316 µM
[28] = second compound 3.16 µM, first compound 1 µM
[29] = second compound 3.16 µM, first compound 3.16 µM
[30] = second compound 3.16 µM, first compound 10 µM
[31] = second compound 10 µM, first compound 0.0316 µM
[32] = second compound 10 µM, first compound 0.1 µM
[33] = second compound 10 µM, first compound 0.316 µM
[34] = second compound 10 µM, first compound 1 µM
[35] = second compound 10 µM, first compound 3.16 µM
[36] = second compound 10 µM, first compound 10 µM
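Note: spheroids exposed to compounds for 7 days.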
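Throughout, for viability, T/C: 100% = DMSO vehicle-treated spheroids.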

SMILES: C=CC(=O)N1CCN(c2nc(=O)n(-c3c(C)ccnc3C(C)C)c3nc(-c4c(O)cccc4F)c(F)cc23)C(C)C1 (stereo not given) + COC1C(OC(N)=O)C(O)C(Oc2ccc3c(O)c(NC(=O)c4ccc(O)c(CC=C(C)C)c4)c(=O)oc3c2C)OC1(C)C
- IC50 (second compound 0.0316 µM): > 10000 nM
- IC50 (second compound 0.1 µM): > 10000 nM
- IC50 (second compound 0.316 µM): > 10000 nM
- IC50 (second compound 1 µM): > 10000 nM
- IC50 (second compound 3.16 µM): > 10000 nM
- IC50 (second compound 10 µM): > 10000 nM
- viability, T/C [1]: 87.6%
- viability, T/C [2]: 125%
- viability, T/C [3]: 89.3%
- viability, T/C [4]: 99.9%
- viability, T/C [5]: 121%
- viability, T/C [6]: 67.3%
- viability, T/C [7]: 124%
- viability, T/C [8]: 100%
- viability, T/C [9]: 133%
- viability, T/C [10]: 83.3%
- viability, T/C [11]: 118%
- viability, T/C [12]: 76.2%
- viability, T/C [13]: 115%
- viability, T/C [14]: 127%
- viability, T/C [15]: 104%
- viability, T/C [16]: 97.4%
- viability, T/C [17]: 95.7%
- viability, T/C [18]: 59.6%
- viability, T/C [19]: 132%
- viability, T/C [20]: 104%
- viability, T/C [21]: 77.8%
- viability, T/C [22]: 140%
- viability, T/C [23]: 89.3%
- viability, T/C [24]: 51.2%
- viability, T/C [25]: 102%
- viability, T/C [26]: 108%
- viability, T/C [27]: 123%
- viability, T/C [28]: 97%
- viability, T/C [29]: 80.4%
- viability, T/C [30]: 72.2%
- viability, T/C [31]: 78.8%
- viability, T/C [32]: 96.8%
- viability, T/C [33]: 80.7%
- viability, T/C [34]: 98.2%
- viability, T/C [35]: 107%
- viability, T/C [36]: 57.3%

SMILES: CC(C)n1c(=O)n(C)c2cnc3cc(F)c(-c4ccc(OCCCN5CCCCC5)nc4)cc3c21 + COC1C(OC(N)=O)C(O)C(Oc2ccc3c(O)c(NC(=O)c4ccc(O)c(CC=C(C)C)c4)c(=O)oc3c2C)OC1(C)C
- IC50 (second compound 0.0316 µM): > 10000 nM
- IC50 (second compound 0.1 µM): 7060 nM
- IC50 (second compound 0.316 µM): > 10000 nM
- IC50 (second compound 1 µM): 4940 nM
- IC50 (second compound 3.16 µM): 4970 nM
- IC50 (second compound 10 µM): 5050 nM
- viability, T/C [1]: 88.5%
- viability, T/C [2]: 95.9%
- viability, T/C [3]: 61.4%
- viability, T/C [4]: 93.1%
- viability, T/C [5]: 84.5%
- viability, T/C [6]: 52.6%
- viability, T/C [7]: 74.4%
- viability, T/C [8]: 82.5%
- viability, T/C [9]: 129%
- viability, T/C [10]: 102%
- viability, T/C [11]: 72.7%
- viability, T/C [12]: 40.2%
- viability, T/C [13]: 78.5%
- viability, T/C [14]: 96.5%
- viability, T/C [15]: 86.3%
- viability, T/C [16]: 93%
- viability, T/C [17]: 71.4%
- viability, T/C [18]: 55.8%
- viability, T/C [19]: 102%
- viability, T/C [20]: 102%
- viability, T/C [21]: 84%
- viability, T/C [22]: 81.1%
- viability, T/C [23]: 62.5%
- viability, T/C [24]: 31.8%
- viability, T/C [25]: 81.9%
- viability, T/C [26]: 87.8%
- viability, T/C [27]: 78.6%
- viability, T/C [28]: 85.8%
- viability, T/C [29]: 71.3%
- viability, T/C [30]: 16.9%
- viability, T/C [31]: 80.5%
- viability, T/C [32]: 65.4%
- viability, T/C [33]: 62.1%
- viability, T/C [34]: 81.4%
- viability, T/C [35]: 74.4%
- viability, T/C [36]: 16.9%

SMILES: CC1COCCN1c1cc(C2(S(C)(=N)=O)CC2)nc(-c2ccnc3[nH]ccc23)n1 (stereo not given) + COC1C(OC(N)=O)C(O)C(Oc2ccc3c(O)c(NC(=O)c4ccc(O)c(CC=C(C)C)c4)c(=O)oc3c2C)OC1(C)C
- IC50 (second compound 0.0316 µM): 338 nM
- IC50 (second compound 0.1 µM): 422 nM
- IC50 (second compound 0.316 µM): 363 nM
- IC50 (second compound 1 µM): 440 nM
- IC50 (second compound 3.16 µM): 169 nM
- IC50 (second compound 10 µM): 241 nM
- viability, T/C [1]: 85.6%
- viability, T/C [2]: 74.6%
- viability, T/C [3]: 53.1%
- viability, T/C [4]: 19.9%
- viability, T/C [5]: 6.56%
- viability, T/C [6]: 4.6%
- viability, T/C [7]: 98.5%
- viability, T/C [8]: 105%
- viability, T/C [9]: 58.7%
- viability, T/C [10]: 19.9%
- viability, T/C [11]: 7.9%
- viability, T/C [12]: 4.68%
- viability, T/C [13]: 92.7%
- viability, T/C [14]: 76.3%
- viability, T/C [15]: 56.8%
- viability, T/C [16]: 21%
- viability, T/C [17]: 6.66%
- viability, T/C [18]: 4.27%
- viability, T/C [19]: 94.5%
- viability, T/C [20]: 110%
- viability, T/C [21]: 59.2%
- viability, T/C [22]: 23.4%
- viability, T/C [23]: 9.79%
- viability, T/C [24]: 4.86%
- viability, T/C [25]: 89.9%
- viability, T/C [26]: 60.2%
- viability, T/C [27]: 37.9%
- viability, T/C [28]: 20.8%
- viability, T/C [29]: 8.42%
- viability, T/C [30]: 4.19%
- viability, T/C [31]: 111%
- viability, T/C [32]: 63.3%
- viability, T/C [33]: 51.7%
- viability, T/C [34]: 24.6%
- viability, T/C [35]: 9.19%
- viability, T/C [36]: 4.6%

SMILES: CCc1cc2c(N3CCc4c(cc(Cn5ccnc5)cc4-c4cn(C)nc4C(F)(F)F)C3=O)ccnc2c(OC)n1 + COC1C(OC(N)=O)C(O)C(Oc2ccc3c(O)c(NC(=O)c4ccc(O)c(CC=C(C)C)c4)c(=O)oc3c2C)OC1(C)C
- IC50 (second compound 0.0316 µM): 2920 nM
- IC50 (second compound 0.1 µM): 3300 nM
- IC50 (second compound 0.316 µM): 5170 nM
- IC50 (second compound 1 µM): 1580 nM
- IC50 (second compound 3.16 µM): 6940 nM
- IC50 (second compound 10 µM): 4320 nM
- viability, T/C [1]: 79%
- viability, T/C [2]: 80.2%
- viability, T/C [3]: 84.7%
- viability, T/C [4]: 70%
- viability, T/C [5]: 49%
- viability, T/C [6]: 32.2%
- viability, T/C [7]: 90.3%
- viability, T/C [8]: 94%
- viability, T/C [9]: 83.2%
- viability, T/C [10]: 70.3%
- viability, T/C [11]: 51.6%
- viability, T/C [12]: 29.7%
- viability, T/C [13]: 82.8%
- viability, T/C [14]: 98.2%
- viability, T/C [15]: 77.7%
- viability, T/C [16]: 97.5%
- viability, T/C [17]: 57.8%
- viability, T/C [18]: 39.5%
- viability, T/C [19]: 95.7%
- viability, T/C [20]: 73%
- viability, T/C [21]: 97.3%
- viability, T/C [22]: 53.3%
- viability, T/C [23]: 54.9%
- viability, T/C [24]: 35.2%
- viability, T/C [25]: 72.8%
- viability, T/C [26]: 83.7%
- viability, T/C [27]: 89.4%
- viability, T/C [28]: 68.3%
- viability, T/C [29]: 63.7%
- viability, T/C [30]: 44.2%
- viability, T/C [31]: 104%
- viability, T/C [32]: 82.2%
- viability, T/C [33]: 75.2%
- viability, T/C [34]: 75.2%
- viability, T/C [35]: 57%
- viability, T/C [36]: 35.2%

SMILES: COc1ccc([C@@H](O)c2cc(-c3ncnc4cc(N5CCOCC5)ccc34)c(F)cc2Cl)nn1 + COC1C(OC(N)=O)C(O)C(Oc2ccc3c(O)c(NC(=O)c4ccc(O)c(CC=C(C)C)c4)c(=O)oc3c2C)OC1(C)C
- IC50 (second compound 0.0316 µM): 678 nM
- IC50 (second compound 0.1 µM): 1040 nM
- IC50 (second compound 0.316 µM): 797 nM
- IC50 (second compound 1 µM): 1010 nM
- IC50 (second compound 3.16 µM): 497 nM
- IC50 (second compound 10 µM): 579 nM
- viability, T/C [1]: 111%
- viability, T/C [2]: 61.9%
- viability, T/C [3]: 76.9%
- viability, T/C [4]: 44.5%
- viability, T/C [5]: 22.8%
- viability, T/C [6]: 11.9%
- viability, T/C [7]: 117%
- viability, T/C [8]: 79.6%
- viability, T/C [9]: 68.8%
- viability, T/C [10]: 55%
- viability, T/C [11]: 26.6%
- viability, T/C [12]: 18.5%
- viability, T/C [13]: 98.7%
- viability, T/C [14]: 86%
- viability, T/C [15]: 58.4%
- viability, T/C [16]: 53.9%
- viability, T/C [17]: 25.5%
- viability, T/C [18]: 18.9%
- viability, T/C [19]: 102%
- viability, T/C [20]: 88.8%
- viability, T/C [21]: 89.4%
- viability, T/C [22]: 49.2%
- viability, T/C [23]: 25.9%
- viability, T/C [24]: 18.9%
- viability, T/C [25]: 97.1%
- viability, T/C [26]: 86%
- viability, T/C [27]: 59.6%
- viability, T/C [28]: 34.2%
- viability, T/C [29]: 22.3%
- viability, T/C [30]: 16%
- viability, T/C [31]: 135%
- viability, T/C [32]: 62.2%
- viability, T/C [33]: 80%
- viability, T/C [34]: 43.9%
- viability, T/C [35]: 27.4%
- viability, T/C [36]: 16.2%
